Measurements as given in US9468212B2, “Antifungal compositions” (DSM IP ASSETS B.V., priority 2013, dated 2016).
Several values for one entry are separate records, joined by “and”; a condition that tells them apart may be missing. Identical values can stand only once.

How the values were obtained:
[1] = system: Penicillium italicum; test: Treatment of oranges: wounded, inoculated with Penicillium italicum, wound treated with antifungal composition (Examples 7-9); format: in vivo; conditions: 500 ppm natamycin, 400 ppm fenpiclonil or both, oranges, 20° C.
Protocol: The expected antifungal activity (E in %) of the combined antifungal composition comprising both active ingredients was calculated according to the Colby equation (Colby, 1967): E=X+Y−[(X·Y)/100] wherein X and Y are the observed antifungal activities (in %) of the individual active ingredients X and Y, respectively.
Eight fresh, organic oranges were used per treatment. Each orange was soaked in a 180 ppm hypochlorite solution for 10 minutes, then rinsed thoroughly with fresh tap water and dried. The peel of each disinfected orange was wounded once using a cork borer according to the method described by de Lapeyre de Bellaire and Dubois (1987). Subsequently, each wound was inoculated with 10 μl of a Penicillium italicum suspension containing 5×10^5 of spores/ml. After incubation for 3 hours at 20° C., each wound and the orange peel area of 1 cm around the wound was treated with in total […] of a freshly prepared aqueous antifungal composition comprising either 500 ppm natamycin (DSM Food Specialties, Delft, The Netherlands), 300 ppm fludioxonil or both. Each antifungal composition also comprised 3.2% (w/w) beeswax, 0.8% (w/w) glycerol, 0.7% (w/w) polyoxyethylene sorbitan monostearate (Tween 60), 0.1% (w/w) polyoxyethylene sorbitan monooleate (Tween 80), 0.05% (w/w) methylhydroxyethyl-cellulose (MHEC), 0.03% (w/w) anti-foaming agent, 0.02% (w/w) xanthan gum, 0.02% (w/w) citric acid, 0.01% (w/w) lactic acid and 0.01% potassium sorbate. A composition without natamycin or fludioxonil was used as control.
The treated oranges were incubated in a closed box in the dark at 20° C. and assessed on mould growth during a 27-day incubation period.
(§1) The experiment was conducted as described in Example 7, except for the fact that each wounded and inoculated orange was treated with 150 μl of a freshly prepared aqueous antifungal composition comprising either 250 ppm natamycin (DSM Food Specialties, Delft, The Netherlands), 100 ppm fludioxonil or both. During incubation, the treated oranges were assessed on mould growth according to the two methods described in Example 5.
as §1, with “500” for “250”, “400” for “100”, “fenpiclonil” for “fludioxonil”, “a 23-day incubation period,” for “incubation,”

[2] = system: Botrytis cinerea; test: Treatment of sweet peppers: wounded, inoculated with Botrytis cinerea, wound treated with antifungal composition (Example 10); format: in vivo; conditions: 400 ppm natamycin, 600 ppm fenpiclonil or both, 20° C.
Protocol: Ten fresh, organic sweet peppers were used per treatment. The peel of each sweet pepper was wounded once using a cork borer according to the method described by de Lapeyre de Bellaire and Dubois (1987). Subsequently, each wound was inoculated with 10 μl of a Botrytis cinerea suspension containing 1×10^5 of spores/ml. After incubation for 3 hours at 20° C., each wound and the skin area of 0.5 cm around the wound was treated with in total 75 μl of a freshly prepared aqueous antifungal composition comprising either 400 ppm natamycin (DSM Food Specialties, Delft, The Netherlands), 600 ppm fenpiclonil or both. Each antifungal composition also comprised 3.2% (w/w) beeswax, 0.8% (w/w) glycerol, 0.7% (w/w) polyoxyethylene sorbitan monostearate (Tween 60), 0.2% (w/w) polyoxyethylene sorbitan monooleate (Tween 80), 0.05% (w/w) methylhydroxyethyl-cellulose (MHEC), 0.03% (w/w) anti-foaming agent, 0.02% (w/w) xanthan gum, 0.02% (w/w) citric acid, 0.01% (w/w) lactic acid and 0.01% potassium sorbate. A composition without natamycin or fenpiclonil was used as control.
The treated sweet peppers were incubated in a closed box in the dark at 20° C. and assessed on mould growth during incubation. The antifungal activity (in %) of the individual and combined active ingredients was determined by calculating the reduction in mould growth observed on the sweet peppers treated with the antifungal composition in comparison to the mould growth on the sweet peppers treated with the control composition according to the Colby method (Colby, 1967) as described in Example 5.

N#Cc1c[nH]cc1-c1cccc(Cl)c1Cl [Fenpiclonil, fenpiclonil]
Observed antifungal activity O (%) ([1]; 22-23 days): 0% | Observed antifungal activity O (%) ([1]; 12 days): 78% | Observed antifungal activity O (%) ([1]; 13 days): 70% | Observed antifungal activity O (%) ([1]; 14 days): 66% | Observed antifungal activity O (%) ([1]; 15 days): 59% | Observed antifungal activity O (%) ([1]; 16 days): 47% | Observed antifungal activity O (%) ([1]; 18 days): 28% | Observed antifungal activity O (%) ([1]; 19 days): 17% | Observed antifungal activity O (%) ([1]; 20 days): 6% | Observed antifungal activity O (%) ([1]; 21 days): 3% | Number of moulded oranges/total number of 8 oranges ([1]; Day 14-15): 6 and 6/8 | Number of moulded oranges/total number of 8 oranges ([1]; Day 16): 8 and 8/8 | Number of moulded oranges/total number of 8 oranges ([1]; Day 18): 8 and 8/8 | Number of moulded oranges/total number of 8 oranges ([1]; Day 19-23): 8 and 8/8 | Observed antifungal activity O (%) ([2]; 47 days): 0% | Observed antifungal activity O (%) ([2]; 48 days): 0% | Observed antifungal activity O (%) ([2]; 49 days): 0% | Observed antifungal activity O (%) ([2]; 50 days): 0%
